Columns and labels:
[1] = test system: HARA (Squamous Cell Lung Carcinoma); assay: Bliss excess, mean over the matrix (fraction); higher = more synergy
Outline: (§1)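 Cell lines grown in DMEM/F12 or RPMI with 10% FBS were plated in 1536-well plates and held 24 hours at 37°C, 5% CO2 before 72 hours of exposure to two-drug dose matrices, with DMSO typically at 0.2%. CellTiter-Glo 2.0 luminescence gave viability, which was converted to inhibition. Vehicle wells were set to 0 and blank wells to 1. Combination Emax is the second-highest inhibition in the matrix, and Bliss excess is the observed combination effect minus the expected EA + EB − EA·EB, where EA and EB are the single-agent effects.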

[2] = test system: OVCAR-8 (Ovarian Carcinoma); assay: as above
Outline: as §1

[3] = test system: SU-DHL-6 (B-Cell Non-Hodgkin's Lymphoma); assay: as above
Outline: as §1

[4] = test system: SW1116 (Colorectal Carcinoma); assay: as above
Outline: as §1

[5] = test system: 639-V (Bladder Carcinoma); assay: combination Emax (second highest fraction inhibited in the dose matrix, 72 h); higher = more inhibition; extreme values may be limits of the assay
Outline: as §1

[6] = test system: CAPAN-1 (Pancreatic Carcinoma); assay: as above
Outline: as §1

COLO-829 (Melanoma) = assay: as above
Outline: as §1

[7] = test system: EN (Endometrial Carcinoma); assay: as above
Outline: as §1

[8] = test system: HARA (Squamous Cell Lung Carcinoma); assay: as above
Outline: as §1

[9] = test system: HCC-15 (Squamous Cell Lung Carcinoma); assay: as above
Outline: as §1

[10] = test system: KYSE-410 (Esophageal Squamous Cell Carcinoma); assay: as above
Outline: as §1

NB14 (Neuroblastoma) = assay: as above
Outline: as §1

NCI-H2461 (Mesothelioma) = assay: as above
Outline: as §1

[11] = test system: PCI-30 (Head and Neck Carcinoma); assay: as above
Outline: as §1

SH-4 (Melanoma) = assay: as above
Outline: as §1

[12] = test system: SK-OV-3 (Ovarian Carcinoma); assay: as above
Outline: as §1

[13] = test system: SUP-T1 (T-Lymphoblastic Leukemia); assay: as above
Outline: as §1

[14] = test system: SW1116 (Colorectal Carcinoma); assay: as above
Outline: as §1

[15] = test system: TE-4 (Esophageal Squamous Cell Carcinoma); assay: as above
Outline: as §1

[16] = test system: UMC-11 (Other Solid Carcinomas); assay: as above
Outline: as §1
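For Bliss excess, mean over the matrix in this document: after 72 h of two-drug dosing.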

| Structure (SMILES) | Bliss excess [1] | Bliss excess [2] | Bliss excess [3] | Bliss excess [4] | combination Emax [5] | combination Emax [6] | combination Emax (COLO-829 (Melanoma)) | combination Emax [7] | combination Emax [8] | combination Emax [9] | combination Emax [10] | combination Emax (NB14 (Neuroblastoma)) | combination Emax (NCI-H2461 (Mesothelioma)) | combination Emax [11] | combination Emax (SH-4 (Melanoma)) | combination Emax [12] | combination Emax [13] | combination Emax [14] | combination Emax [15] | combination Emax [16] |
| --- | --- | --- | --- | --- | --- | --- | --- | --- | --- | --- | --- | --- | --- | --- | --- | --- | --- | --- | --- | --- |
| COc1nnc2ccc(N3CCC(c4ccc(OCCN5CCN(C)C(=O)[C@H]5C)cc4)CC3)nn12 [AZD5153] + C[C@@H]1COCCN1C2=NC(=NC(=C2)C3(CC3)[S@](=N)(=O)C)C4=C5C=CNC5=NC=C4 [AZD6738] (first compound max 1 µM, 7x7, partner max 10 µM) | -0.0012 | 0.0047 | -0.0505 | -0.0165 | 0.813 | 0.54 | 0.259 | 0.584 | 0.832 | 0.513 | 0.484 | 0.97 | 0.649 | 0.404 | 0.666 | 0.481 | 0.844 | 0.432 | 0.898 | 0.912 |
| COc1nnc2ccc(N3CCC(c4ccc(OCCN5CCN(C)C(=O)[C@H]5C)cc4)CC3)nn12 [AZD5153] + Cc1c2c(nn1C)CSCc1cc(n(C)n1)CSc1cc(c3ccccc3c1)OCCCc1c(C(=O)O)n(C)c3c-2c(Cl)ccc13 [AZD5991] (first compound max 1 µM, 7x7, partner max 1 µM) | -0.0142 | 0.0205 | -0.0326 | 0.0091 | 0.653 | 0.417 | 0.514 | 0.645 | 0.741 | 0.535 | 0.348 | 0.934 | 0.498 | 0.344 | 0.89 | 0.413 | 0.726 | 0.414 | 0.847 | 0.994 |
| COc1nnc2ccc(N3CCC(c4ccc(OCCN5CCN(C)C(=O)[C@H]5C)cc4)CC3)nn12 [AZD5153] + Cn1cnc2c(F)c(Nc3ccc(Br)cc3Cl)c(C(=O)NOCCO)cc21 [Selumetinib] (first compound max 1 µM, 7x7, partner max 10 µM) | 0.0308 | 0.0159 | -0.0278 | 0.0036 | 0.676 | 0.664 | 0.663 | 0.289 | 0.708 | 0.693 | 0.345 | 0.892 | 0.501 | 0.368 | 0.953 | 0.404 | 0.718 | 0.699 | 0.871 | 0.704 |
| Cc1c2c(nn1C)CSCc1cc(n(C)n1)CSc1cc(c3ccccc3c1)OCCCc1c(C(=O)O)n(C)c3c-2c(Cl)ccc13 [AZD5991] + C1CN(CCC1(C(=O)N[C@@H](CCO)C2=CC=C(C=C2)Cl)N)C3=NC=NC4=C3C=CN4 [Capivasertib] (first compound max 1 µM, 7x7, partner max 3 µM) | -0.0041 | 0 | -0.0035 | -0.0238 | 0.177 | 0.203 | 0.222 | 0.848 | 0.58 | 0.227 | 0.174 | 0.89 | 0.464 | 0.237 | 0.332 | 0.36 | 0.503 | 0.102 | 0.81 | 0.29 |
| Cc1c2c(nn1C)CSCc1cc(n(C)n1)CSc1cc(c3ccccc3c1)OCCCc1c(C(=O)O)n(C)c3c-2c(Cl)ccc13 [AZD5991] + C=CCn1c(=O)c2cnc(Nc3ccc(N4CCN(C)CC4)cc3)nc2n1-c1cccc(C(C)(C)O)n1 [AZD1775] (first compound max 1 µM, partner max 1 µM) | 0.0014 | -0.0075 | -0.0152 | 0.005 | 0.448 | 0.465 | 0.291 | 0.812 | 0.89 | 0.55 | 0.625 | 1 | 0.712 | 0.317 | 0.616 | 0.597 | 0.847 | 0.378 | 0.801 | 0.784 |
| Cc1c2c(nn1C)CSCc1cc(n(C)n1)CSc1cc(c3ccccc3c1)OCCCc1c(C(=O)O)n(C)c3c-2c(Cl)ccc13 [AZD5991] + CC1(C)CCC(CN2CCN(c3ccc(C(=O)NS(=O)(=O)c4ccc(NCC5CCOCC5)c([N+](=O)[O-])c4)c(Oc4cnc5[nH]ccc5c4)c3)CC2)=C(c2ccc(Cl)cc2)C1 [Venetoclax] (first compound max 1 µM, 7x7, partner max 1 µM) | -0.0091 | -0.0157 | 0.0744 | -0.0215 | 0.194 | 0.138 | 0.213 | 0.608 | 0.294 | 0.323 | 0.156 | 1 | 0.181 | 0.218 | 0.642 | 0.219 | 0.304 | 0.145 | 0.261 | 0.821 |
| Cc1c2c(nn1C)CSCc1cc(n(C)n1)CSc1cc(c3ccccc3c1)OCCCc1c(C(=O)O)n(C)c3c-2c(Cl)ccc13 [AZD5991] + CCN(CCO)CCCOc1ccc2c(Nc3cc(CC(=O)Nc4cccc(F)c4)[nH]n3)ncnc2c1 [AZD2811] (first compound max 1 µM, 7x7, partner max 1 µM) | 0.0761 | 0.0412 | 0.0379 | -0.003 | 0.368 | 0.206 | 0.269 | 0.866 | 0.776 | 0.783 | 0.265 | 0.953 | 0.335 | 0.284 | 0.336 | 0.301 | 0.419 | 0.256 | 0.575 | 0.949 |
| Cc1c2c(nn1C)CSCc1cc(n(C)n1)CSc1cc(c3ccccc3c1)OCCCc1c(C(=O)O)n(C)c3c-2c(Cl)ccc13 [AZD5991] + C[C@@H]1COCCN1C2=NC(=NC(=C2)C3(CC3)[S@](=N)(=O)C)C4=C5C=CNC5=NC=C4 [AZD6738] (first compound max 1 µM, 7x7, partner max 10 µM) | -0.0283 | 0.001 | -0.0137 | 0.0515 | 0.452 | 0.488 | 0.532 | 0.853 | 0.776 | 0.297 | 0.403 | 0.989 | 0.765 | 0.603 | 0.422 | 0.556 | 0.741 | 0.281 | 0.773 | 0.828 |
| Cc1c2c(nn1C)CSCc1cc(n(C)n1)CSc1cc(c3ccccc3c1)OCCCc1c(C(=O)O)n(C)c3c-2c(Cl)ccc13 [AZD5991] + C[C@@H](Nc1cc(F)cc(F)c1)c1cc(C(=O)N(C)C)cc2c(=O)cc(N3CCOCC3)oc12 [AZD8186] (first compound max 1 µM, 7x7, partner max 3 µM) | -0.0036 | 0.0164 | -0.002 | 0.0046 | 0.421 | 0.172 | 0.17 | 0.558 | 0.412 | 0.203 | 0.221 | 0.898 | 0.363 | 0.264 | 0.332 | 0.424 | 0.279 | 0.17 | 0.377 | 0.32 |
| Cc1c2c(nn1C)CSCc1cc(n(C)n1)CSc1cc(c3ccccc3c1)OCCCc1c(C(=O)O)n(C)c3c-2c(Cl)ccc13 [AZD5991] + Cc1cc2ncnn2cc1Nc1ncc2c(n1)n(C1CCOCC1)c(=O)n2C [AZD7648] (first compound max 1 µM, 7x7, partner max 10 µM) | 0.045 | -0.0129 | 0.0224 | -0.0466 | 0.298 | 0.267 | 0.144 | 0.563 | 0.394 | 0.207 | 0.229 | 0.72 | 0.422 | 0.323 | 0.284 | 0.483 | 0.466 | 0.168 | 0.517 | 0.625 |
| Cc1c2c(nn1C)CSCc1cc(n(C)n1)CSc1cc(c3ccccc3c1)OCCCc1c(C(=O)O)n(C)c3c-2c(Cl)ccc13 [AZD5991] + Cn1cnc2c(F)c(Nc3ccc(Br)cc3Cl)c(C(=O)NOCCO)cc21 [Selumetinib] (first compound max 1 µM, 7x7, partner max 3 µM) | -0.0263 | 0.0416 | 0.0071 | -0.032 | 0.283 | 0.381 | 0.907 | 0.535 | 0.223 | 0.563 | 0.331 | 0.76 | 0.359 | 0.198 | 0.96 | 0.333 | 0.236 | 0.446 | 0.453 | 0.348 |
| C[C@@H]1COCCN1c1cc(C2([S@](C)(=N)=O)CC2)nc(-c2ccnc3[nH]ccc23)n1 [AZD6738] + O=C(c1cc(Cc2n[nH]c(=O)c3ccccc23)ccc1F)N1CCN(C(=O)C2CC2)CC1 [Olaparib] (first compound max 10 µM, 7x7, partner max 10 µM) | 0.033 | 0.0495 | -0.0124 | -0.0228 | 0.787 | 0.442 | 0.194 | 0.535 | 0.778 | 0.258 | 0.239 | 0.94 | 0.703 | 0.538 | 0.419 | 0.6 | 0.767 | 0.262 | 0.527 | 0.561 |
